This is an account of results in patent US20260271949A1, “PHOTOSENSITIZER COMPOSITIONS, DEVICES, AND METHODS OF USE FOR SURFACE SANITIZATION OF PROCESSED FOOD PRODUCTS” (ONDINE INTERNATIONAL AG, priority 2023, published 2026).

The subject of data set [1] is Salmonella enterica Serotype Choleraesuis (ATCC 10708). The data set is described as follows: Planktonic MBC (turbidity assay), MBEC Assay challenge plate outgrowth. It counts as cell-based. The note with it: S. enterica, PS alone, Blue 470 nm (Erythrosin B: Green 527 nm).
In data set [2] the test system is S. enterica biofilms. Nature of the data set: MBEC (turbidity assay), biofilm recovery plate. The settings on record: Blue 470 nm (Erythrosin B: Green 527 nm). Format: cell-based, Salmonella enterica. The procedure:
(§1) The saturated bacterial cultures were diluted 1:10,000 to an approximate density of 10^5 CFU/mL. Density was confirmed by an inoculum check. The inoculum was poured into a sterile reagent reservoir. Using a multi-channel pipette, 200 μL of the ~105 inoculum was added to each well from rows A to G of the MBEC™ device, as indicated in FIGS. 2A-2C (12 devices per organism were tested; 4 devices per study day), 200 μL of OSB was added to row H to act as sterility controls (SC). The pegged lid was then placed into the microtiter plate and sealed in a plastic bag.
(§2) The pegs of the MBEC lid were rinsed for 120 seconds.
(§3) Using additional sterile 96-well receiver plates, recovery plates were prepared (one per MBEC lid) containing 225 μL per well of the neutralizer/recovery broth, as described above. The MBEC lids were transferred to the recovery broth, and the plates (with the pegged lids) were transferred into a stainless-steel insert tray, which sat in the water of a bath sonicator. Sonication was performed on high for 30 minutes to dislodge surviving biofilm. The pegged lid was then removed and discarded.
(§4) 125 μL of OSB was added to each well of the recovery plates to top back up to 225 µL per well. The contents of the wells were mixed by pipetting up and down.

Data set [3] concerns MRSA biofilms. Nature of the data set: MBEC (turbidity assay), biofilm recovery plate. Format: cell-based, Staphylococcus aureus. The settings on record: Blue 470 nm (Erythrosin B: Green 527 nm). The procedure:
as §1, §2, §3, §4

For data set [4], the system named is S. enterica biofilms. Nature of the data set: Quantitative determination of MBEC (Log10 reduction assay). The note with it: for concentration of optimal efficacy: S. enterica biofilm; for Quant. MBEC / log 10 reduction in biofilm CFUs: S. enterica; for Quant. MBEC: >3 log10 reduction or max kill, PS alone, Blue 470 nm (Erythrosin B: Green 527 nm). Format: cell-based, Salmonella enterica. The procedure:
(§5) One hundred microlitres was removed from each well of row A of the recovery plate into row A of an appropriately labelled 96-well dilution plate; 100 μL was removed from row B of this recovery plate into row A of another 96-well dilution plate. This was repeated for other utilized MBEC rows (total: up to 8 dilution plates per MBEC recovery plate). These plates were kept for the “Quantitative Determination of MBEC (Log10 Reduction Assay)” described below.
(§6) 180 μL of sterile 0.9% saline was added to each well of rows B-H of the 96-well dilution plates prepared as described above. The sample in row A was then serially diluted in the saline in rows B-H and spot plated on OSA.
(§7) The quantitative MBEC was defined as the minimum concentration of test article that yielded a particular log 10 reduction in biofilm CFUs. For MRSA, >4 log 10 reduction (which corresponds to >99.99% reduction); for S. enterica, >3 log 10 reduction (which corresponds to >99.9% reduction) or, where recovery from the VC controls was <3 log 10, “max kill”.
(§8) Quantitative MBEC results were determined using log 10 reduction. Generally, the appropriate number of colonies were counted on the spot plates according to the plating method used. An appropriate number of colonies that was considered appropriate for counting was a 20 μL spot where the individual colonies were visibly distinct from each other within the plated spot (typically 5-50 colonies). The section in which this spot was located gave the order of magnitude for the cell enumeration: 100-107.

For data set [5], the system named is MRSA biofilms. Described as above. It counts as cell-based, Staphylococcus aureus. The note with it: for concentration of optimal efficacy: MRSA biofilm; for Quant. MBEC / log 10 reduction in biofilm CFUs: MRSA; for Quant. MBEC: >4 log10 reduction, PS alone, Blue 470 nm (Erythrosin B: Green 527 nm). Here is the method:
as §5, §6, §7, §8

Data set [6] is described as follows: Coloration of challenge plates under green irradiation. It counts as physicochemical. The note with it: green irradiation 2, 5, 10 min vs dark, most evident for 0.01% and 0.001%. The procedure: FIG. 5 provides representative photographs showing coloration of challenge plates for the Green-irradiated PS (Erythrosin B) under dark conditions and with green irradiation for 2 min, 5 min and 10 min. The highest tested concentration of Erythrosin B (i.e., 1% w/v) was beet red in color, with the 1:1,000 dilution (i.e., 0.001% w/v) yielding a light pink color and minimal coloration remaining by the 1:10,000 dilution (i.e., 0.0001% w/V) (FIG. 5; left).

Data set [7] deals with Staphylococcus aureus (MRSA) 456 S. Yanke. Nature of the data set: Planktonic MBC (turbidity assay), MBEC Assay challenge plate outgrowth. The note with it: Blue 470 nm (Erythrosin B: Green 527 nm).
Setting [8] is: fluence 0 (Dark) J/cm^2, PS alone.
Where [9] appears, read: PS at 0.01%, 10 minutes of green irradiation (51.0 J/cm^2).
[10] abbreviates: PS at 0.1%, 5 minutes of green irradiation (25.5 J/cm^2).
Where [11] appears, read: Blue-irradiated, tested individually (FIG. 7 Panels A-C).
Where [12] appears, read: Blue-irradiated, tested individually (FIG. 8 Panels A-C).
The mark [13] stands for this setting: PS at 0.1%, 5 minutes of blue irradiation (51.0 J/cm^2).

For `O=C1OC2(c3ccccc31)c1cc(I)c(O)c(I)c1Oc1c2cc(I)c(O)c1I` [PS4, Erythrosin B], the figures for the MBC in data set [1] (fluence 0 (Dark) J/cm^2) and in data set [1] (fluence 10.2 J/cm^2) were above 1 % w/V and 0.01 (Ø) % w/V, respectively. Further, the MBEC was above 1 % w/V in data set [2] (setting [8]); 0.01 (Ø) % w/V in data set [2] (fluence 10.2 J/cm^2, PS alone); 0.01 (Ø) % w/V in data set [2] (fluence 25.5 J/cm^2, PS alone); above 1 % w/V in data set [3] (setting [8]). Also, the “concentration of optimal efficacy” value in data set [4] (Green irradiation, 51.0 J/cm^2 (FIG. 9)) was determined as 0.01%; in data set [5] (Green irradiation, 10.2 J/cm^2 (FIG. 9)), 0.01%; in data set [5] (Green irradiation, 25.5 J/cm^2 (FIG. 9)) it was 0.1%. For the same compound, the “Quant. MBEC” value in data set [4] (fluence 0 (Dark) J/cm^2) is given as above 1 % w/V; in data set [4] (fluence 10.2 J/cm^2) it was above 1 % w/V; in data set [4] (fluence 25.5 J/cm^2) it was 0.1 % w/V; in data set [4] (fluence 51.0 J/cm^2) it was 0.01 % w/V; in data set [5] (fluence 0 (Dark) J/cm^2) it was above 1 % w/V; in data set [5] (fluence 10.2 J/cm^2) it was 0.01 % w/V. Also, the “log 10 reduction in biofilm CFUs” value in data set [4] (setting [9]) is on record as “max kill”; in data set [4] (setting [10]), “max kill”; in data set [5] (setting [9]) it was “max kill”; in data set [5] (setting [10]), 5.28 log 10. The coloration upon irradiation entry in data set [6] is on record as “lost coloration with increasing irradiation time”.

Take `O=S(=O)([O-])c1ccc(N=Nc2c(O)ccc3cc(S(=O)(=O)[O-])ccc23)cc1.[Na+].[Na+]` [PS2, Sunset Yellow FCF]: the MBC in data set [1] (fluence 0 (Dark) J/cm^2) is given as above 1 % w/V; in data set [1] (fluence 10.2 J/cm^2), above 1 % w/V; in data set [1] (fluence 25.5 J/cm^2), above 1 % w/V; in data set [7] (setting [8]), above 1 % w/V; in data set [7] (fluence 10.2 J/cm^2, PS alone), above 1 % w/V; in data set [7] (fluence 25.5 J/cm^2, PS alone), above 1 % w/V. Besides, the MBEC was above 1 % w/V in data set [2] (setting [8]); above 1 % w/V in data set [2] (fluence 10.2 J/cm^2, PS alone); above 1 % w/V in data set [2] (fluence 25.5 J/cm^2, PS alone); above 1 % w/V in data set [3] (setting [8]); above 1 % w/V in data set [3] (fluence 10.2 J/cm^2, PS alone); above 1 % w/V in data set [3] (fluence 25.5 J/cm^2, PS alone). Moreover, the “concentration of optimal efficacy” value in data set [4] (setting [11]) was determined as 0.001 % w/v; in data set [5] (setting [12]), 0.01 % w/v. The “Quant. MBEC” value in data set [4] (fluence 0 (Dark) J/cm^2) is above 1 % w/V; in data set [4] (fluence 10.2 J/cm^2) it was above 1 % w/V; in data set [4] (fluence 25.5 J/cm^2), above 1 % w/V; in data set [4] (fluence 51.0 J/cm^2), 0.001 % w/V; in data set [5] (fluence 0 (Dark) J/cm^2) it was above 1 % w/V; in data set [5] (fluence 10.2 J/cm^2) it was above 1 % w/V. Further, the “Quant. MBEC” value in data set [5] (fluence 25.5 J/cm^2) is recorded as above 1 % w/V; in data set [5] (fluence 51.0 J/cm^2), 0.01 % w/V.

For `Cc1cc2nc3c(=O)[nH]c(=O)nc-3n(C[C@H](O)[C@H](O)[C@H](O)COP(=O)([O-])O)c2cc1C.[Na+]` [PS1, Riboflavin-5′-Phosphate Sodium USP], the MBC was above 1 % w/V in data set [1] (fluence 0 (Dark) J/cm^2); above 1 % w/V in data set [1] (fluence 10.2 J/cm^2); above 1 % w/V in data set [1] (fluence 25.5 J/cm^2); above 1 % w/V in data set [7] (setting [8]); above 1 % w/V in data set [7] (fluence 10.2 J/cm^2, PS alone); 0.1 (Ø) % w/V in data set [7] (fluence 25.5 J/cm^2, PS alone). In addition, the MBEC was above 1 % w/V in data set [2] (setting [8]); above 1 % w/V in data set [2] (fluence 10.2 J/cm^2, PS alone); above 1 % w/V in data set [2] (fluence 25.5 J/cm^2, PS alone); above 1 % w/V in data set [3] (setting [8]); above 1 % w/V in data set [3] (fluence 10.2 J/cm^2, PS alone); above 1 % w/V in data set [3] (fluence 25.5 J/cm^2, PS alone). In data set [3] (fluence 51.0 J/cm^2, PS alone), the MBEC is reported as 0.1 (Ø) % w/V. The “concentration of optimal efficacy” value in data set [4] (setting [11]) and in data set [5] (setting [12]) was 0.1 % w/v each time. The “Quant. MBEC” value in data set [4] (fluence 0 (Dark) J/cm^2) is above 1 % w/V; in data set [4] (fluence 10.2 J/cm^2) it was above 1 % w/V; in data set [4] (fluence 25.5 J/cm^2), above 1 % w/V; in data set [4] (fluence 51.0 J/cm^2) it was 0.1 % w/V; in data set [5] (fluence 0 (Dark) J/cm^2), above 1 % w/V; in data set [5] (fluence 10.2 J/cm^2), above 1 % w/V. Moreover, the results for the “Quant. MBEC” value in data set [5] (fluence 25.5 J/cm^2) and in data set [5] (fluence 51.0 J/cm^2) were above 1 % w/V and 0.1 % w/V, respectively. In addition, the “log 10 reduction in biofilm CFUs” value in data set [4] (setting [13]) was “max kill”; in data set [5] (setting [13]), 5.36 log 10.

Turning to `COc1cc(/C=C/C(=O)CC(=O)/C=C/c2ccc(O)c(OC)c2)ccc1O` [PS3, Curcumin], the MBC was above 0.001 % w/V in data set [1] (fluence 0 (Dark) J/cm^2); above 0.001 % w/V in data set [1] (fluence 10.2 J/cm^2); above 0.001 % w/V in data set [1] (fluence 25.5 J/cm^2); above 0.001 % w/V in data set [1] (fluence 51.0 J/cm^2); above 0.001 % w/V in data set [7] (setting [8]); above 0.001 % w/V in data set [7] (fluence 10.2 J/cm^2, PS alone). The MBC in data set [7] (fluence 25.5 J/cm^2, PS alone) is reported as above 0.001 % w/V. Also, the MBEC in data set [2] (setting [8]) was above 0.001 % w/V; in data set [2] (fluence 10.2 J/cm^2, PS alone) it was above 0.001 % w/V; in data set [2] (fluence 25.5 J/cm^2, PS alone) it was above 0.001 % w/V; in data set [2] (fluence 51.0 J/cm^2, PS alone), above 0.001 % w/V; in data set [3] (setting [8]) it was above 0.001 % w/V; in data set [3] (fluence 10.2 J/cm^2, PS alone), above 0.001 % w/V. Moreover, the MBEC in data set [3] (fluence 25.5 J/cm^2, PS alone) is given as above 0.001 % w/V; in data set [3] (fluence 51.0 J/cm^2, PS alone) it was above 0.001 % w/V. The “concentration of optimal efficacy” value in data set [4] (setting [11]) was 0.0001 % w/v; in data set [5] (setting [12]), 0.001 % w/v. For the same compound, the “Quant. MBEC” value was above 0.001 % w/V in data set [4] (fluence 0 (Dark) J/cm^2); above 0.001 % w/V in data set [4] (fluence 10.2 J/cm^2); above 0.001 % w/V in data set [4] (fluence 25.5 J/cm^2); 0.0001 % w/V in data set [4] (fluence 51.0 J/cm^2); above 0.001 % w/V in data set [5] (fluence 0 (Dark) J/cm^2); above 0.001 % w/V in data set [5] (fluence 10.2 J/cm^2). The “Quant. MBEC” value in data set [5] (fluence 25.5 J/cm^2) is given as above 0.001 % w/V; in data set [5] (fluence 51.0 J/cm^2), 0.001 % w/V.
